From patent US12655160B2, “KRAS G12D inhibitors” (Mirati Therapeutics, Inc., priority 2020, dated 2026)
Structures can show the parent of a compound that is named as a salt.

Target: KRas G12D (Homo sapiens, UniProt P01116, G12D)
Assay: KRas G12D Binding Assay (TR-FRET displacement of labeled tracer)
Set-up: corresponding to amino acids 1:169, produced at Array BioPharma Inc; biotin (biotinylated)
Details: TR-FRET displacement of Cy5 labelled tracer, Biotinylated GDP-loaded KRAS G12D (amino acids 1:169), 60 minute incubation at 22° C.
Procedure: This Example illustrates that exemplary compounds of the present invention bind to KRas G12D and are capable of displacing a labeled tracer ligand occupying the KRas G12D binding site. The ability of a compound to bind to KRAS G12D was measured using a TR-FRET displacement assay. Biotinylated GDP-loaded recombinant human KRAS G12D (corresponding to amino acids 1:169, produced at Array BioPharma Inc.) was incubated with a custom-made Cy5 labelled tracer, europium labelled streptavidin and compound (2% DMSO final) in buffer (50 mM HEPES [pH 7.5], 5 mM MgCl2, 0.005% Tween-20 & 1 mM DTT). After a 60 minute incubation at 22° C., the reaction was measured using a PerkinElmer EnVision multimode plate reader via TR-FRET dual wavelength detection, and the percent of control (POC) calculated using a ratiometric emission factor. […] The POC values were fit to a 4-parameter logistic curve and the IC50 value was determined as the concentration where the curve crosses 50 POC.

Chain of KRas G12D (P01116 1-169 isoform P01116-2 G12D): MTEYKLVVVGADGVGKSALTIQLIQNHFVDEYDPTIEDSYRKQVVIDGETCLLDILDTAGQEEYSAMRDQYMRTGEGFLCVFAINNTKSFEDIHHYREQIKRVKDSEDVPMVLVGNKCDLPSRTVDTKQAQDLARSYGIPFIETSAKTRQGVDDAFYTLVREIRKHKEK

| IC50 | Compound |
| --- | --- |
| 0.0009 µM | CCc1cccc2cc(O)cc(-c3ncc4c(NCC5(N(C)C)CCC5)nc(OC[C@@]56CCCN5C[C@H](F)C6)nc4c3F)c12 [Example 33, 4-(4-(((1-(dimethylamino)cyclobutyl)methyl)amino)-8-fluoro-2-(((2R,7aS)-2-fluorotetrahydro-1H-pyrrolizin-7a(5H)-yl)methoxy)pyrido[4,3-d]pyrimidin-7-yl)-5-ethylnaphthalen-2-ol dihydrochloride] |
| 0.0304 µM | CCc1c(F)ccc2cccc(-c3ncc4c(NCC5(N(C)C)CCC5)nc(OCC56CCCN5CCC6)nc4c3F)c12 [Example 35, N-((1-(dimethylamino)cyclobutyl)methyl)-7-(8-ethyl-7-fluoronaphthalen-1-yl)-8-fluoro-2-((tetrahydro-1H-pyrrolizin-7a(5H)-yl)methoxy)pyrido[4,3-d]pyrimidin-4-amine bis(2,2,2-trifluoroacetate)] |
| 0.513 µM | CC(C)c1c(Cl)cccc1-c1ncc2c(NCC3(N(C)C)CCC3)nc(OCC34CCCN3CCC4)nc2c1F [Example 47, 7-(3-chloro-2-isopropylphenyl)-N-((1-(dimethylamino)cyclobutyl)methyl)-8-fluoro-2-((tetrahydro-1H-pyrrolizin-7a(5H)-yl)methoxy)pyrido[4,3-d]pyrimidin-4-amine] |
| 1.08 µM | CC(C)c1c(Cl)cccc1-c1ncc2c(NCC3(N(C)C)CCC3)nc(OC[C@@]34CCCN3C[C@H](F)C4)nc2c1F [Example 48, 7-(3-chloro-2-isopropylphenyl)-N-((1-(dimethylamino)cyclobutyl)methyl)-8-fluoro-2-(((2R,7aS)-2-fluorotetrahydro-1H-pyrrolizin-7a(5H)-yl)methoxy)pyrido[4,3-d]pyrimidin-4-amine] |
| 7.16 µM | CN(C)C1(CNc2nc(OCC34CCCN3CCC4)nc3c(F)c(-c4cccc5cccc(F)c45)ncc23)CCOCC1 [Example 53, N-((4-(dimethylamino)tetrahydro-2H-pyran-4-yl)methyl)-8-fluoro-7-(8-fluoronaphthalen-1-yl)-2-((hexahydro-1H-pyrrolizin-7a-yl)methoxy)pyrido[4,3-d]pyrimidin-4-amine] |
| 0.938 µM | CN(C)C(C)(C)CNc1nc(OCC23CCCN2CCC3)nc2c(F)c(-c3cccc4cccc(Cl)c34)ncc12 [Example 55, N^1-(7-(8-chloronaphthalen-1-yl)-8-fluoro-2-((hexahydro-1H-pyrrolizin-7a-yl)methoxy)pyrido[4,3-d]pyrimidin-4-yl)-N^2,N^2,2-trimethylpropane-1,2-diamine] |
| 9.09 µM | CN(CC1(N(C)C)CCC1)c1nc(OCC23CCCN2CCC3)nc2c(F)c(-c3cccc4cccc(F)c34)ncc12 [Example 58, N-((1-(dimethylamino)cyclobutyl)methyl)-8-fluoro-7-(8-fluoronaphthalen-1-yl)-2-((hexahydro-1H-pyrrolizin-7a-yl)methoxy)-N-methylpyrido[4,3-d]pyrimidin-4-amine] |
| 1.03 µM | CNC1(CNc2nc(OCC34CCCN3CCC4)nc3c(F)c(-c4cccc5cccc(F)c45)ncc23)CCC1 [Example 59, 8-fluoro-7-(8-fluoronaphthalen-1-yl)-2-((hexahydro-1H-pyrrolizin-7a-yl)methoxy)-N-((1-(methylamino)cyclobutyl)methyl)pyrido[4,3-d]pyrimidin-4-amine] |
| 2.12 µM | NC1(CNc2nc(OCC34CCCN3CCC4)nc3c(F)c(-c4cccc5cccc(F)c45)ncc23)CCC1 [Example 60, N-((1-aminocyclobutyl)methyl)-8-fluoro-7-(8-fluoronaphthalen-1-yl)-2-((hexahydro-1H-pyrrolizin-7a-yl)methoxy)pyrido[4,3-d]pyrimidin-4-amine] |
| 0.48 µM | CN(C)C1(CNc2nc(OCC34CCCN3CCC4)nc3c(F)c(-c4cccc5cccc(F)c45)ncc23)CCCC1 [Example 61, N-((1-(dimethylamino)cyclopentyl)methyl)-8-fluoro-7-(8-fluoronaphthalen-1-yl)-2-((hexahydro-1H-pyrrolizin-7a-yl)methoxy)pyrido[4,3-d]pyrimidin-4-amine] |

More lines, now with the values behind:

| Compound | IC50 |
| --- | --- |
| CN(C)C1(CNc2nc(OCCc3nccn3C)nc3c(F)c(-c4cc(O)cc5ccccc45)ncc23)CCC1 [Example 31] | 0.857 µM |
| CN1CCC[C@@H]1COc1nc(NCC2(N(C)C)CCC2)c2cnc(-c3cc(O)cc4ccccc34)c(F)c2n1 [Example 32] | 0.381 µM |
| CCc1cccc2cc(O)cc(-c3ncc4c(NCC5(N(C)C)CCCC5)nc(OC[C@@]56CCCN5C[C@H](F)C6)nc4c3F)c12 [Example 34, 4-(4-(((1-(dimethylamino)cyclopentyl)methyl)amino)-8-fluoro-2-(((2R,7aS)-2-fluorotetrahydro-1H-pyrrolizin-7a(5H)-yl)methoxy)pyrido[4,3-d]pyrimidin-7-yl)-5-ethylnaphthalen-2-ol dihydrochloride] | 0.0011 µM |
| CCc1cccc2cc(O)cc(-c3ncc4c(N(C)CC5(N(C)C)CCC5)nc(OC[C@@]56CCCN5C[C@H](F)C6)nc4c3F)c12 [Example 37, 4-(4-(((1-(dimethylamino)cyclobutyl)methyl)(methyl)amino)-8-fluoro-2-(((2R,7aS)-2-fluorotetrahydro-1H-pyrrolizin-7a(5H)-yl)methoxy)pyrido[4,3-d]pyrimidin-7-yl)-5-ethylnaphthalen-2-ol dihydrochloride] | 0.0261 µM |
| Oc1cc(-c2ncc3c(NCC4(O)CNC4)nc(OC[C@@]45CCCN4C[C@H](F)C5)nc3c2F)c2ccccc2c1 [Example 38, 3-(((8-fluoro-2-(((2R,7aS)-2-fluorotetrahydro-1H-pyrrolizin-7a(5H)-yl)methoxy)-7-(3-hydroxynaphthalen-1-yl)pyrido[4,3-d]pyrimidin-4-yl)amino)methyl)azetidin-3-ol bis(2,2,2-trifluoroacetate)] | 0.389 µM |
| Oc1cc(-c2ncc3c(NC[C@]45C[C@H]4CCN5)nc(OC[C@@]45CCCN4C[C@H](F)C5)nc3c2F)c2ccccc2c1 [Example 40, 4-(4-((((1S,5R)-2-azabicyclo[3.1.0]hexan-1-yl)methyl)amino)-8-fluoro-2-(((2R,7aS)-2-fluorotetrahydro-1H-pyrrolizin-7a(5H)-yl)methoxy)pyrido[4,3-d]pyrimidin-7-yl)naphthalen-2-ol bis(2,2,2-trifluoroacetate)] | 5.15 µM |
| CN(C)C1(CNc2nc(OC[C@@]34CCCN3C[C@H](F)C4)nc3c(F)c(-c4cc(O)cc5ccccc45)ncc23)CCOCC1 [Example 41, 4-(4-(((4-(dimethylamino)tetrahydro-2H-pyran-4-yl)methyl)amino)-8-fluoro-2-(((2R,7aS)-2-fluorotetrahydro-1H-pyrrolizin-7a(5H)-yl)methoxy)pyrido[4,3-d]pyrimidin-7-yl)naphthalen-2-ol bis(2,2,2-trifluoroacetate)] | 0.684 µM |
| CN(C)C(C)(C)CNc1nc(OC[C@]23CCCN2C[C@@H](F)C3)nc2c(F)c(-c3cc(O)cc4ccccc34)ncc12 [Example 42, 4-(4-((2-(dimethylamino)-2-methylpropyl)amino)-8-fluoro-2-(((2S,7aR)-2-fluorotetrahydro-1H-pyrrolizin-7a(5H)-yl)methoxy)pyrido[4,3-d]pyrimidin-7-yl)naphthalen-2-ol bis(2,2,2-trifluoroacetate)] | 0.211 µM |
| CN(C)C1(CNc2nc(OC[C@]34CCCN3[C@@H](COC(=O)N3CCCC3)CC4)nc3c(F)c(-c4cccc5cccc(Cl)c45)ncc23)CCC1 [Example 49, ((3R,7aR)-7a-(((7-(8-chloronaphthalen-1-yl)-4-(((1-(dimethylamino)cyclobutyl)methyl)amino)-8-fluoropyrido[4,3-d]pyrimidin-2-yl)oxy)methyl)hexahydro-1H-pyrrolizin-3-yl)methyl pyrrolidine-1-carboxylate] | 0.232 µM |
| CCc1c(F)ccc2cc(O)cc(-c3ncc4c(NCC5(N(C)C)CCC5)nc(OC[C@@]56CCCN5C[C@H](F)C6)nc4c3F)c12 [Example 57, 4-(4-(((1-(dimethylamino)cyclobutyl)methyl)amino)-8-fluoro-2-(((2R,7aS)-2-fluorohexahydro-1H-pyrrolizin-7a-yl)methoxy)pyrido[4,3-d]pyrimidin-7-yl)-5-ethyl-6-fluoronaphthalen-2-ol] | 0.0011 µM |
| NC1CC(Nc2nc(OCC34CCCN3CCC4)nc3c(F)c(-c4cccc5cccc(F)c45)ncc23)C12CCC2 (stereo not drawn) [Example 62, N^1-(8-fluoro-7-(8-fluoronaphthalen-1-yl)-2-((hexahydro-1H-pyrrolizin-7a-yl)methoxy)pyrido[4,3-d]pyrimidin-4-yl)spiro[3.3]heptane-1,3-diamine] | 0.203 µM |
